# Earlier results in US20230303474A1, “TOTAL SYNTHESES OF SPECIALIZED PRO-RESOLVING MEDIATORS (SPMS), STRUCTURAL ISOMERS AND STRUCTURAL ANALOGS” (UNIVERSITÉ LAVAL, priority 2020, published 2023).
# Test system: skeletal muscle cells
# Settings: background statement citing ref. 19
row,Compound,release of the prototypic myokine interleukin-6 (IL-6)
1,"CC/C=C\C[C@H](O)\C=C/C=C/C=C/[C@H](O)C/C=C\C/C=C\CCC(=O)O [PD1, (4Z,7Z,10R,11E,13E,15Z,17S,19Z)-10,17-dihydroxydocosa-4,7,11,13,15,19-hexaenoic acid]",ineffective
2,"CC/C=C\C[C@H](O)/C=C/C=C\C=C\[C@@H](O)C/C=C\C/C=C\CCC(=O)O [PDX, (4Z,7Z,10S,11E,13Z,15E,17S,19Z)-10,17-dihydroxydocosa-4,7,11,13,15,19-hexaenoic acid]",induce the release
